Data from patent US11572399B2, “Long-acting GIP peptide analogues” (University of Copenhagen, priority 2017, dated 2023).
Like-named read-outs stand apart in the source and are kept apart here.

Assays:
[1] = molecular target: T1, human GIP receptor (Homo sapiens, UniProt P48546); assay: cAMP accumulation assay, antagonism of a GIP-mediated cAMP response (50-80% of max); assay type: cell-based; conditions: for IC50: transiently transfected COS-7 cells
T1 construct: host or cells: COS-7, transient transfection (calcium phosphate), cDNA in pCMV-Script
T1 sequence (P48546 22-466): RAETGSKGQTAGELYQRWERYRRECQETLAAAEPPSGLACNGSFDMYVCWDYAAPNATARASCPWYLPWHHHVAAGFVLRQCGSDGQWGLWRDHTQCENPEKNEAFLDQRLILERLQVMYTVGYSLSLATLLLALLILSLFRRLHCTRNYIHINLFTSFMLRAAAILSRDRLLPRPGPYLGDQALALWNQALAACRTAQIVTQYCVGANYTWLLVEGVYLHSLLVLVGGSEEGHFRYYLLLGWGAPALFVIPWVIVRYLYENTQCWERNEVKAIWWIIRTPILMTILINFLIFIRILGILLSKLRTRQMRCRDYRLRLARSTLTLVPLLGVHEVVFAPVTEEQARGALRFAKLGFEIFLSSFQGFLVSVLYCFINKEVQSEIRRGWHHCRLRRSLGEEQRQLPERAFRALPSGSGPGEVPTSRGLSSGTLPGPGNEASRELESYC
Method: The day after, the cells were washed twice with Hepes buffered saline (HBS) buffer and incubated with HBS and 1 mM 3-isobutyl-1-methylxanthine (IBMX) for 30 min at 37° C. […] The HitHunter™ cAMP XS assay (DiscoveRx) was carried out according to the manufacturer's instructions.

[2] = pigs, previously showed; cited from earlier work
[3] = humans, previously determined; cited from earlier work

For `CC[C@H](C)[C@H](NC(=O)[C@H](CO)NC(=O)[C@H](Cc1ccc(O)cc1)NC(=O)[C@H](CC(=O)O)NC(=O)[C@H](CO)NC(=O)[C@@H](NC(=O)[C@H](Cc1ccccc1)NC(=O)[C@@H](NC(=O)CNC(=O)[C@@H](N)CCC(=O)O)[C@@H](C)O)[C@@H](C)CC)C(=O)N[C@@H](C)C(=O)N[C@@H](CCSC)C(=O)N[C@@H](CC(=O)O)C(=O)N[C@@H](CCCCN)C(=O)N[C@H](C(=O)N[C@@H](Cc1c[nH]cn1)C(=O)N[C@@H](CCC(N)=O)C(=O)N[C@@H](CCC(N)=O)C(=O)N[C@@H](CC(=O)O)C(=O)N[C@@H](Cc1ccccc1)C(=O)N[C@H](C(=O)N[C@@H](CC(N)=O)C(=O)N[C@@H](Cc1c[nH]c2ccccc12)C(=O)N[C@@H](CC(C)C)C(=O)N[C@@H](CC(C)C)C(=O)N[C@@H](C)C(=O)N[C@@H](CCC(N)=O)C(=O)N[C@@H](CCCCN)C(N)=O)C(C)C)[C@@H](C)CC` [hGIP(3-30)NH2, reference compound], the IC50 ([1]; cAMP antagonism log, given as log IC50 (negative sign), Table 1) was 63.1 nM, the IC50 ([1]; cAMP antagonism nM (IC50, antagonistic potency), Table 1 and text) was 65 nM and the “cAMP accumulation logIC50 ± SEM” value ([1]; given as log IC50 (negative sign), linker analogues, n=2, Table 5) was −7.19 ± 0.10. For the same molecule, the T1/2 [2] was 7.5 min and the T1/2 [3] was 7.5 min.
